Laboratory results from PubChem BioAssay (NCI).
Where “and” joins values, the source holds several entries; their conditions need not be identical. Identical values can stand only once.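 Cells were grown in 96-well plates and exposed to each compound for 48 hours at five concentrations; endpoints were interpolated linearly between bracketing concentrations, or set to the highest concentration if not reached. Abbreviation: GI50, concentration required for 50% inhibition of growth. TGI is the concentration that stops growth completely.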

Key:
Assay in all cases: inhibition of tumour cell growth, NCI panel, 48 h
[1] = tested on: A498 renal
[2] = tested on: BT-549 breast
[3] = tested on: DU-145 prostate
[4] = tested on: MALME-3M melanoma
[5] = tested on: MDA-MB-231 breast
[6] = tested on: MDA-MB-435
[7] = tested on: NCI-H460 lung
[8] = tested on: PC-3 prostate
[9] = tested on: RXF 393 renal
[10] = tested on: SK-MEL-28 melanoma

Structure (SMILES) | TGI [1] | TGI [2] | TGI [3] [µM] | TGI [4] | TGI [5] | TGI [6] | TGI [7] [µM] | TGI [8] [µM] | TGI [9] | TGI [10] | GI50 [1] | GI50 [2] | GI50 [3] | GI50 [4] | GI50 [5] | GI50 [6] | GI50 [7] | GI50 [8] | GI50 [9] | GI50 [10]
Cc1cc(=O)oc2c(C)c(O)ccc12 | > 100 µM | > 100 µM | > 100 | > 100 µM | > 100 µM | > 100 µM | > 100 | > 100 | > 100 µM | > 100 µM |  |  |  |  |  |  |  |  |  | 
COc1cccc(/C=C/[N+](=O)[O-])c1 | 16.5 µM | 3.99 µM | 5.64 | 27.8 µM | 20.8 µM | 9.28 µM | 38.8 | 17 | 3.39 µM | 6.28 µM | 3.54 µM | 1.86 µM | 2.26 µM | 12.1 µM | 6.41 µM | 2.69 µM | 15.1 µM | 4.58 µM | 1.83 µM | 2.39 µM
O=C1NC(=O)C(c2ccccc2Cl)=C1Nc1cc(Cl)c(O)c(Cl)c1 | > 25 µM | > 25 µM | > 25 | > 25 µM | > 25 µM | > 25 µM | > 25 | > 25 | > 23.5 µM | > 25 µM | > 25 µM | 16.7 µM | > 25 µM | 17 µM | > 25 µM | 8.78 µM | > 25 µM | > 23 µM | 5.98 µM | > 14.6 µM
C[C@]12CC[C@H](OC3OC(CO)C(O)C(O)C3O)C[C@H]1CC[C@@H]1[C@@H]2CC[C@]2(C)[C@@H](C3=CCOC3=O)CC[C@]12O (some centres undefined) | 21.1 µM and > 100 µM | > 100 µM | > 100 | 20.4 µM and > 100 µM | > 100 µM | > 100 µM | 29.4 | > 100 | 37 µM and > 100 µM | 50 µM and > 100 µM | > 100 µM |  | 70.6 µM | 23 µM and 16.2 µM |  |  | 0.943 µM and 4.26 µM |  | > 100 µM and 89.2 µM | > 100 µM
COc1ccc(/C(COc2ccc3c(=O)c(-c4ccccc4)coc3c2)=N\O)cc1 | 18.5 µM | 54.7 µM | 33.4 | 5.91 µM | 18.5 µM | 4.64 µM | 31.7 | 58.7 | > 80.7 µM | > 90.9 µM | 3.22 µM | 8.27 µM | 4.09 µM | 0.72 µM | 0.698 µM | 2.17 µM | 4 µM | 6.53 µM | 7.81 µM | 10.2 µM
C=C(CN1CCN(c2cccc(C(F)(F)F)n2)CC1)c1ccc(C(=O)Nc2ccccc2N)cc1 |  | 88.4 µM and > 100 µM | > 100 | > 100 µM and 28.2 µM | 34.2 µM and > 72.7 µM | 2.26 µM and 0.767 µM | > 100 | > 100 | 26.1 µM and > 100 µM | > 100 µM and 15.5 µM | 0.875 µM and 0.261 µM | 0.918 µM and 0.34 µM | 1.46 µM and 0.634 µM | 1.06 µM and 0.338 µM | 4.63 µM and 1.02 µM | 0.27 µM and 0.205 µM | 0.64 µM and 0.37 µM | 0.42 µM and 0.484 µM | 0.672 µM and 2.12 µM | 2.08 µM and 0.422 µM
O=c1ccs[nH]1 | 99.6 µM | 40.3 µM | > 91.3 | 35.5 µM | 28.6 µM | 31 µM | 34.3 | 31.4 | 21 µM | 67.5 µM |  |  |  |  |  |  |  |  |  | 
Cc1cc(O)cc2c1[C@]1(C)CCC3C(C)(C)CCC[C@]3(C)[C@H]1C2 (some centres undefined) | 39.1 µM | 38.6 µM | 35 | 39.4 µM | 38.5 µM | 33.4 µM | 37.1 | 65.1 | 50.4 µM | 36.7 µM | 23.2 µM | 21.6 µM | 19.1 µM | 23.2 µM | 22 µM | 18.8 µM | 20.6 µM | 24.7 µM | 25 µM | 20.4 µM
CC(C)C[C@H](NC(=O)Cn1ccc(NCc2ccccc2)cc1=O)B(O)O | 1.59 µM | 2.59 µM | > 100 | > 30 µM | 19.8 µM | 1.29 µM | 37.6 | 98.9 | 1.31 µM | 47 µM | 0.234 µM | 0.431 µM | 5.48 µM | 2.22 µM | 3.18 µM | 0.335 µM | 6.19 µM | 5.86 µM | 0.346 µM | 0.6 µM
CNC(=S)NC(=O)c1c(Cl)n(C(=O)OC(C)(C)C)c2ccccc12 | > 100 µM | > 100 µM | > 100 | > 100 µM | > 100 µM | > 100 µM | > 100 | > 100 | > 100 µM | > 100 µM | 51.5 µM | 53.2 µM | 94.2 µM | > 100 µM | 33.7 µM | 44 µM | 48.6 µM | 25.5 µM | 48.5 µM | > 100 µM
C=C1C(C2(C)C(OC(C)=O)CC(=O)OC(C)(COC(C)=O)C2CC(=O)OC)C(OC=O)C(OC(=O)C(O)C(C)CC)C2(C)C(c3ccoc3)CC(=O)C12O (centres undefined) | > 29.3 µM | > 30.5 µM | > 100 |  | > 100 µM | > 100 µM | > 21.8 | > 100 | 6.48 µM | > 100 µM |  |  |  |  |  |  |  |  |  | 
O=C(O)CCCSc1ccccc1 | > 100 µM | > 100 µM | > 100 | > 100 µM | > 100 µM | > 100 µM | > 100 | > 100 | > 100 µM | > 100 µM |  |  |  |  |  |  |  |  |  | 
CCCN(CCC)c1ccc(/C=C/c2ccc3cc(OCC)ccc3n2)cc1 | > 100 µM | > 100 µM | > 100 | > 100 µM | > 100 µM | > 100 µM | > 100 | > 100 | 64.1 µM | > 100 µM | > 100 µM | > 100 µM | > 100 µM | > 100 µM | > 100 µM | > 100 µM | 63.2 µM | 56.3 µM | 5.23 µM | > 100 µM
C/C(=N\Nc1cc(C)c2ccccc2n1)c1ccccn1 | 3.04 µM | 15.7 µM | 12.4 | 1.49 µM | 1.66 µM | 1.75 µM | 1.17 | 4.5 | 1.82 µM | 1.96 µM | 0.284 µM | 0.301 µM | 0.107 µM | 0.155 µM | < 0.0283 µM | 0.21 µM | < 0.0387 µM | 0.0821 µM | 0.29 µM | 0.362 µM
